Holding throughout (assay): Test 2 glasshouse assay (IF50 formulation, X-77), post-emergence herbicidal activity
Holding throughout (format): in vivo

Assay [1] has as its system Beta vulgaris (BEAVA, sugarbeet). The conditions noted are these: 360 h, 15 DAA, visual score, read-out: Post-emergence herbicidal activity (percentage phytotoxicity) BEAVA; for plant injury at 125 g/ha: application rate 125 g/ha; for plant injury at 250 g/ha: application rate 250 g/ha. The method, then: (§1) Seeds of a variety of monocotyledonous and dicotyledonous test plants are sown in standard soil in pots. The plants are cultivated for one day (for pre-emergence) or for about 12 days (for post-emergence) under controlled conditions in a glasshouse (warm climate species at 24/18° C., cool climate species at 20/16° C., both at day/night; 16 hours light; 65% humidity).
(§2) An “instant formulation”, known as the “IF50”, containing 50 g/liter (i.e. 5% w/v) of the “technical” (i.e. unformulated) active ingredient is prepared by dissolving the active ingredient in a mixture of organic solvents and emulsifier, details of which are provided in the Table below. This IF50 is then mixed with a small, variable amount of acetone to aid dissolution, before addition of a 0.2% v/v aqueous solution of the adjuvant X-77 (which is a mixture of alkyl aryl polyoxyethylene glycols and free fatty acids in isopropanol, CAS Registry number 11097-66-8), as the aqueous diluent, to form an aqueous spray solution which contains a predetermined concentration of the active ingredient (which varies depending on the application rate of the active ingredient to the plants) and 0.2% v/v of the adjuvant X-77. This aqueous spray solution is then sprayed onto the plants, after one day's cultivation (for pre-emergence), or after about 12 days' cultivation (range=10-13 days) (for post-emergence).
(§3) The test plants are then grown on, in a glasshouse (greenhouse) under controlled conditions (warm climate species at 24/18° C., cool climate species at 20/16° C., both at day/night; 16 hours light; 65% humidity) and are watered twice daily. 15 days after application of the test herbicide (15DAA) (for post-emergence), and 20 days after application of the test herbicide (20DAA) (for pre-emergence), the test plants are evaluated visually, and an assessed percentage phytotoxicity score is given for each herbicidal application on each plant species (with 100%=total damage to plant; 0%=no damage to plant).
(§4) Cool climate crop plants: Triticum aestivum (TRZAW, winter wheat), Brassica napus (BRSNN, rape, also called oilseed rape or rapeseed), Beta vulgaris (BEAVA, sugarbeet). Warm climate crop plants: Glycine max (GLXMA, soybean).

Assay [2] deals with Triticum aestivum (TRZAW, winter wheat). Particulars: 360 h, 15 DAA, visual score, read-out: Post-emergence herbicidal activity (percentage phytotoxicity) TRZAW; for plant injury at 125 g/ha: application rate 125 g/ha; for plant injury at 250 g/ha: application rate 250 g/ha. The method, then:
as §1, §2, §3, §4

In assay [3] the test system is Brassica napus (BRSNN, rape). The conditions noted are these: 360 h, 15 DAA, visual score, read-out: Post-emergence herbicidal activity (percentage phytotoxicity) BRSNN; for plant injury at 125 g/ha: application rate 125 g/ha; for plant injury at 250 g/ha: application rate 250 g/ha. The protocol:
as §1, §2, §3, §4

The test system of assay [4] is Glycine max (GLXMA, soybean). Particulars: 360 h, 15 DAA, visual score, read-out: Post-emergence herbicidal activity (percentage phytotoxicity) GLXMA; for plant injury at 125 g/ha: application rate 125 g/ha; for plant injury at 250 g/ha: application rate 250 g/ha. The protocol: as §1, §2, §3, §4
Assay [5] has as its system Alopecurus myosuroides (ALOMY). The conditions noted are these: 360 h, 15 DAA, visual score, read-out: Post-emergence herbicidal activity (percentage phytotoxicity) ALOMY; for pest or weed control at 125 g/ha: application rate 125 g/ha; for pest or weed control at 250 g/ha: application rate 250 g/ha. The protocol:
as §1, §2, §3
(§5) Cool climate (“cool season”) grassy monocotyledonous weeds: Alopecurus myosuroides (ALOMY), Avena fatua (AVEFA), Lolium perenne (LOLPE).

For assay [6], the system named is Lolium perenne (LOLPE). Particulars: 360 h, 15 DAA, visual score, read-out: Post-emergence herbicidal activity (percentage phytotoxicity) LOLPE; for pest or weed control at 125 g/ha: application rate 125 g/ha; for pest or weed control at 250 g/ha: application rate 250 g/ha. The method, then:
as §1, §2, §3, §5

Assay [7] deals with Avena fatua (AVEFA). The conditions noted are these: 360 h, 15 DAA, visual score, read-out: Post-emergence herbicidal activity (percentage phytotoxicity) AVEFA; for pest or weed control at 125 g/ha: application rate 125 g/ha; for pest or weed control at 250 g/ha: application rate 250 g/ha. The method, then: as §1, §2, §3, §5
Assay [8] relates to Brachiaria plantaginea (BRAPL). Particulars: Urochloa plantaginea, 360 h, 15 DAA, visual score, read-out: Post-emergence herbicidal activity (percentage phytotoxicity) BRAPL. The method, then: as §1, §2, §3
(§6) Warm climate (“warm season”) grassy monocotyledonous weeds: Setaria faberi (SETFA), Panicum miliaceum (PANMI), Sorghum vulgare Pers. (SORVU) (or Sorghum bicolor (L) Moench ssp. Bicolor), Digitaria sanguinalis (DIGSA), Echinochloa crus-galli (ECHCG), and Brachiaria plantaginea (BRAPL).

Assay [9] deals with Setaria faberi (SETFA). Particulars: 360 h, 15 DAA, visual score, read-out: Post-emergence herbicidal activity (percentage phytotoxicity) SETFA; for pest or weed control at 125 g/ha: application rate 125 g/ha; for pest or weed control at 250 g/ha: application rate 250 g/ha. The protocol: as §1, §2, §3, §6
Assay [10] relates to Panicum miliaceum (PANMI). Particulars: 360 h, 15 DAA, visual score, read-out: Post-emergence herbicidal activity (percentage phytotoxicity) PANMI; for pest or weed control at 125 g/ha: application rate 125 g/ha; for pest or weed control at 250 g/ha: application rate 250 g/ha. The method, then: as §1, §2, §3, §6
For assay [11], the system named is Sorghum vulgare Pers. (SORVU). The conditions noted are these: Sorghum bicolor, 360 h, 15 DAA, visual score, read-out: Post-emergence herbicidal activity (percentage phytotoxicity) SORVU; for pest or weed control at 125 g/ha: application rate 125 g/ha; for pest or weed control at 250 g/ha: application rate 250 g/ha. The method, then:
as §1, §2, §3, §6

The test system of assay [12] is Digitaria sanguinalis (DIGSA). The conditions noted are these: 360 h, 15 DAA, visual score, read-out: Post-emergence herbicidal activity (percentage phytotoxicity) DIGSA; for pest or weed control at 125 g/ha: application rate 125 g/ha; for pest or weed control at 250 g/ha: application rate 250 g/ha. The protocol:
as §1, §2, §3, §6

Assay [13] concerns Echinochloa crus-galli (ECHCG). Particulars: 360 h, 15 DAA, visual score, read-out: Post-emergence herbicidal activity (percentage phytotoxicity) ECHCG; for pest or weed control at 125 g/ha: application rate 125 g/ha; for pest or weed control at 250 g/ha: application rate 250 g/ha. The method, then: as §1, §2, §3, §6

On to `C#CCC1CC(=O)C(c2c(C)cc(-c3ccc(F)cc3)cc2C)C1=O` (centres unmarked) [Compound A1, 2-[4-(4-fluorophenyl)-2,6-dimethyl-phenyl]-4-prop-2-ynylcyclopentane-1,3-dione], for which the plant injury at 30 g/ha in assay [1] (application rate 30 g/ha) stood at 70%; in assay [2] (application rate 30 g/ha) it was 80%; in assay [3] (application rate 30 g/ha), 70%; in assay [4] (application rate 30 g/ha), 0%. For the same compound, the plant injury at 125 g/ha in assay [1] stood at 70%; in assay [2] it was 80%; in assay [3], 70%; in [4], 0%. For the same compound, the pest or weed control at 30 g/ha stood at 60% in [5] (application rate 30 g/ha); 70% in [6] (application rate 30 g/ha); 70% in [7] (application rate 30 g/ha); 100% in assay [8] (application rate 30 g/ha); 90% in [9] (application rate 30 g/ha); 80% in [10] (application rate 30 g/ha). Moreover, the values for the pest or weed control at 30 g/ha in assay [11] (application rate 30 g/ha), in [12] (application rate 30 g/ha) and in assay [13] (application rate 30 g/ha) were 90%, 100% and 100%, respectively. For the same compound, the pest or weed control at 125 g/ha in assay [5] is 80%; in assay [6], 80%; in assay [7] it was 100%; in assay [8] (application rate 125 g/ha) it was 100%; in assay [9], 100%; in assay [10] it was 100%. Further, the pest or weed control at 125 g/ha in assay [11], in [12] and in assay [13] was 100% in each case.

With `C#CCC1CC(=O)C(c2cc(-c3ccc(Cl)cc3Cl)ccc2C)C1=O` (centres unmarked) [Compound A15], the plant injury at 250 g/ha in [1] amounted to 40%; in [2], 10%; in [3] it was 60%; in [4], 10%. Further, the pest or weed control at 250 g/ha turned out to be 40% in assay [5]; 20% in assay [6]; 10% in assay [7]; 30% in [9]; 70% in assay [10]; 40% in assay [11]. Moreover, the values for the pest or weed control at 250 g/ha in assay [12] and in [13] were 30% and 70%, respectively.

As to `C#CCC1CC(=O)C(c2cc(-c3ncc(Cl)cc3F)ccc2C)C1=O` (centres unmarked) [Compound A18], the plant injury at 250 g/ha in assay [1] was 50%; in assay [2] it was 30%; in [3] it was 20%; in assay [4], 40%. Besides, the pest or weed control at 250 g/ha in assay [5] came to 30%; in [6], 10%; in assay [7] it was 30%; in assay [9], 70%; in [10] it was 60%; in assay [11], 70%. The pest or weed control at 250 g/ha in assay [12] turned out to be 50%; in assay [13], 90%.

Turning to `C#CCC1CC(=O)C(c2cc(-c3ncc(Cl)cn3)ccc2C)C1=O` (centres unmarked) [Compound A19], the plant injury at 250 g/ha in assay [1] came to 0%; in assay [2], 30%; in assay [3], 10%; in assay [4], 20%. For the same compound, the pest or weed control at 250 g/ha came out at 40% in assay [5]; 10% in assay [6]; 10% in assay [7]; 60% in assay [9]; 70% in [10]; 70% in assay [11]. Moreover, the pest or weed control at 250 g/ha in [12] and in assay [13] was 70% in each case.

In the case of `C#CCC1CC(=O)C(c2c(C)cc(C)cc2C)C1=O` (centres unmarked) [Compound A23], the plant injury at 125 g/ha in assay [1] worked out at 30%; in assay [2], 20%; in assay [3] it was 70%; in [4], 0%. Also, the pest or weed control at 125 g/ha in assay [5] was 90%; in [6], 90%; in assay [7], 80%; in assay [9], 80%; in assay [10], 100%; in [11], 90%. The pest or weed control at 125 g/ha in [12] and in [13] was 100% throughout.

These data come from patent US10375956B2, “Herbicidally active 2-(substituted-phenyl)-cyclopentane-1,3-dione compounds and derivatives thereof” (Syngenta Limited, priority 2013, dated 2019).
